In PubChem BioAssay AID248 (DTP/NCI, 2004):
Inconclusive results and toxic doses are left out. No stated cut-off is given here; in the data, active means T/C of 150% or more; inactive means T/C below 125%.

Test system: L1210 leukemia ip in BDF1 mice, survival T/C
Assay: NCI In Vivo Anticancer Drug Screen. Data for tumor model L1210 Leukemia (intraperitoneal) in B6D2F1 (BDF1) mice
Conditions: endpoint: mean survival time, higher = longer survival
Summary of the method: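 Tumor was transplanted into mice, which were then dosed with test compound or vehicle alone. Survival was recorded for each group, and the treated figure was expressed relative to the control figure.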

[1] = dose: 100.0 mg/kg/injection, schedule: Q04DX003 (ip), vehicle: other
[2] = dose: 100.0 mg/kg/injection, schedule: Q01DX009 (ip), vehicle: Klucel (hydroxypropylcellulose) (HPC)
[3] = dose: 200.0 mg/kg/injection, schedule: Q01DX009 (ip), vehicle: Klucel (hydroxypropylcellulose) (HPC)
[4] = dose: 400.0 mg/kg/injection, schedule: Q01DX009 (ip), vehicle: Klucel (hydroxypropylcellulose) (HPC)

Measured: T/C

Cc1ccc(C(=O)[O][Hg][CH2]C2COC([CH2][Hg][O]C(=O)c3ccc(C)cc3)CO2)cc1 (centres undefined)
inactive: dose: 3.12 mg/kg/injection, schedule: Q01DX009 (ip), vehicle: Klucel (hydroxypropylcellulose) (HPC) 93 % of control | dose: 6.25 mg/kg/injection, schedule: Q01DX009 (ip), vehicle: Klucel (hydroxypropylcellulose) (HPC) 93 % of control | dose: 6.25 mg/kg/injection, schedule: Q01DX009 (ip), vehicle: saline with Tween-80 113 % of control | dose: 12.5 mg/kg/injection, schedule: Q01DX009 (ip), vehicle: Klucel (hydroxypropylcellulose) (HPC) 94 % of control | dose: 12.5 mg/kg/injection, schedule: Q01DX009 (ip), vehicle: saline with Tween-80 100 % of control | dose: 25.0 mg/kg/injection, schedule: Q01DX009 (ip), vehicle: saline with Tween-80 105 % of control | dose: 25.0 mg/kg/injection, schedule: Q04DX003 (ip), vehicle: other 92 % of control | dose: 50.0 mg/kg/injection, schedule: Q04DX003 (ip), vehicle: other 90 % of control | [1] 95 % of control

COc1ccc(/C=C2\N=C(c3cc(OC)c(OC)c(OC)c3)OC2=O)cc1
inactive: dose: 100.0 mg/kg/injection, schedule: Q04DX002 (ip), vehicle: Klucel (hydroxypropylcellulose) (HPC) 95 % of control | dose: 200.0 mg/kg/injection, schedule: Q04DX002 (ip), vehicle: Klucel (hydroxypropylcellulose) (HPC) 98 % of control | dose: 400.0 mg/kg/injection, schedule: Q04DX002 (ip), vehicle: Klucel (hydroxypropylcellulose) (HPC) 88 % of control

OCC#CC#CCO
inactive: dose: 25.0 mg/kg/injection, schedule: Q01DX009 (ip), vehicle: saline 95 % of control | dose: 50.0 mg/kg/injection, schedule: Q01DX009 (ip), vehicle: saline 115 % of control | dose: 100.0 mg/kg/injection, schedule: Q01DX009 (ip), vehicle: saline 105 % of control | dose: 100.0 mg/kg/injection, schedule: Q04DX003 (ip), vehicle: saline 103 % of control

Cc1nnc(NC(=O)C(Cl)(Cl)Cl)s1
inactive: dose: 100.0 mg/kg/injection, schedule: Q01DX001 (ip), vehicle: other 94 % of control | [1] 96 % of control | dose: 200.0 mg/kg/injection, schedule: Q01DX001 (ip), vehicle: other 105 % of control | dose: 200.0 mg/kg/injection, schedule: Q04DX003 (ip), vehicle: other 109 % of control | dose: 400.0 mg/kg/injection, schedule: Q01DX001 (ip), vehicle: other 104 % of control | dose: 400.0 mg/kg/injection, schedule: Q04DX003 (ip), vehicle: other 96 % of control

CCOC(=O)C(C(=O)CC)=P(c1ccccc1)(c1ccccc1)c1ccccc1
inactive: dose: 100.0 mg/kg/injection, schedule: Q01DX005 (ip), vehicle: Klucel (hydroxypropylcellulose) (HPC) 113 % of control | [2] 97 % of control | dose: 200.0 mg/kg/injection, schedule: Q01DX005 (ip), vehicle: Klucel (hydroxypropylcellulose) (HPC) 88 % of control | [3] 108 % of control | dose: 400.0 mg/kg/injection, schedule: Q01DX005 (ip), vehicle: Klucel (hydroxypropylcellulose) (HPC) 98 % of control | [4] 110 % of control

O=C(O)c1c(Br)c(Br)c(Br)c(Br)c1C(=O)Nc1cc([N+](=O)[O-])ccc1O
inactive: [2] 106 % of control | [3] 122 % of control | [4] 101 % of control

CCO/C=C1\SC(=S)N(CCc2ccc(OC)c(OC)c2)C1=O
inactive: [2] 94 % of control | dose: 100.0 mg/kg/injection, schedule: Q04DX003 (ip), vehicle: Klucel (hydroxypropylcellulose) (HPC) 102 % of control | [3] 93 % of control | dose: 200.0 mg/kg/injection, schedule: Q04DX003 (ip), vehicle: Klucel (hydroxypropylcellulose) (HPC) 102 % of control | [4] 103 % of control | dose: 400.0 mg/kg/injection, schedule: Q04DX003 (ip), vehicle: Klucel (hydroxypropylcellulose) (HPC) 102 % of control

CCN(C)CCC(CC=C(C)C)(C(N)=O)c1cccc2ccccc12 (centres undefined)
inactive: dose: 12.5 mg/kg/injection, schedule: Q04DX002 (ip), vehicle: saline 100 % of control | dose: 25.0 mg/kg/injection, schedule: Q04DX002 (ip), vehicle: saline 87 % of control
